The NIST ThermoML archive (doi:10.1016/j.jct.2012.09.026)
Numbers after ± are expanded uncertainties.

Experiments:
[1] = Liquid, Vibrating tube method
[2] = xn = mol fraction of the nth substance listed; details: Liquid, x2 = 0

O [water]
mass density [kg/m3], [1]
Details | 101.3 kPa | 10000 kPa | 25000 kPa | 50000 kPa | 75000 kPa | 100000 kPa
278.15 K | 999.96 ± 1 | 1004.77 ± 1 | 1011.88 ± 1.1 | 1023.2 ± 1.1 | 1033.91 ± 1.2 | 1044.08 ± 1.3
288.15 K | – | 1003.67 ± 1 | 1010.42 ± 1.1 | 1021.21 ± 1.1 | 1031.47 ± 1.2 | 1041.23 ± 1.3
298.15 K | – | 1001.47 ± 1 | 1007.99 ± 1.1 | 1018.44 ± 1.1 | 1028.37 ± 1.2 | 1037.86 ± 1.3
308.15 K | – | 998.36 ± 1 | 1004.75 ± 1.1 | 1014.97 ± 1.1 | 1024.71 ± 1.2 | 1034 ± 1.3
323.15 K | 988.03 ± 1 | 992.31 ± 1 | 998.61 ± 1.1 | 1008.68 ± 1.1 | 1018.27 ± 1.2 | 1027.42 ± 1.3

CC(C)(C)O [2-methylpropan-2-ol]
mass density [kg/m3], [1]
Details | 101.3 kPa | 10000 kPa | 25000 kPa | 50000 kPa | 75000 kPa | 100000 kPa
308.15 K | 770.14 ± 1 | – | – | – | – | –
323.15 K | 753.94 ± 1 | 764.58 ± 1 | 778.73 ± 1.1 | 798.2 ± 1.1 | 813.79 ± 1.2 | 827.34 ± 1.3

O [water] + CC(C)(C)O
mass density [kg/m3], [2]
Details | 278.15 K | 288.15 K | 298.15 K | 308.15 K | 323.15 K
101.3 kPa, Vibrating tube method | 999.96 ± 1 | – | – | – | 988.03 ± 1
10000 kPa, Constant-volume piezometry | 1004.77 ± 1 | 1003.67 ± 1 | 1001.47 ± 1 | 998.36 ± 1 | 992.31 ± 1
25000 kPa, Constant-volume piezometry | 1011.88 ± 1.1 | 1010.42 ± 1.1 | 1007.99 ± 1.1 | 1004.75 ± 1.1 | 998.61 ± 1.1
50000 kPa, Constant-volume piezometry | 1023.2 ± 1.1 | 1021.21 ± 1.1 | 1018.44 ± 1.1 | 1014.97 ± 1.1 | 1008.68 ± 1.1
75000 kPa, Constant-volume piezometry | 1033.91 ± 1.2 | 1031.47 ± 1.2 | 1028.37 ± 1.2 | 1024.71 ± 1.2 | 1018.27 ± 1.2
100000 kPa, Constant-volume piezometry | 1044.08 ± 1.3 | 1041.23 ± 1.3 | 1037.86 ± 1.3 | 1034 ± 1.3 | 1027.42 ± 1.3
